Source: paper PMC8205226, “HIV-1 Integrase Inhibitors with Modifications That Affect Their Potencies against Drug Resistant Integrase Mutants” (ACS Infectious Diseases, 2021)

Columns and labels:
Type in all cases: cell-based
HIV-1 IN mutant Y143R = test: single-round infectivity assay, Y143R IN mutant
Procedure: (§1) Figure 2 Antiviral activities of the new compounds against RAL-resistant mutants. The EC50 values were determined using a vector that carries WT HIV-1 IN and the RAL-resistant mutants in a single round infection assay. […] Error bars represent the standard deviations of independent experiments, n = 4, performed in triplicate. The graph has a maximum value of 550 nM.
(§2) WT and mutant HIV-1 viral vectors were used in single-round infectivity assays to determine the antiviral potencies (EC50 values) of the compounds and the effects of the mutants on the EC50 values as previously described.[30],[54] Single round infectivity measurements were determined as done previously.[38]
(§3) The vector pNLNgoMIVR-ΔENV.LUC has been described previously.[26] To produce the new IN mutants used in this study, the IN open reading frame was removed from pNLNgoMIVR-ΔENV.LUC by digestion with KpnI and SalI, and the resulting fragment was inserted between the KpnI and SalI sites of pBluescript KS+. Using that construct as the wild-type template, we prepared the following HIV-1 IN mutants using the QuikChange II XL site directed mutagenesis kit (Agilent Technologies, Santa Clara, CA) protocol: N117A, N117H, P142A, P142H, P142S, Y143C, Y143H, S230R, R231G, and R231K. The following sense oligonucleotides were used with matching cognate antisense oligonucleotides (not shown) (Integrated DNA Technologies, Coralville, IA) in the mutagenesis: N117A, 5′-[…]-3′; N117H, 5′-[…]-3′; P142A, 5′-[…]-3′; P142H, 5′-[…]-3′; P142S, 5′-[…]-3′; Y143C, 5′- […]-3′; Y143H, 5′-[…]-3′; S230R, 5′- […]-3′; R231G, 5′-[…]-3′; R231K, 5′-[…]-3′.

HIV-1 IN mutant R231K = test: single-round infectivity assay, R231K IN mutant
Procedure: (§4) Figure 5 Antiviral potencies of the new compounds against IN with mutations in the […]. The EC50 values were determined using a vector that carries the IN mutant in a single round infection assay. […] Error bars represent the standard deviations of independent experiments, n = 4, performed in triplicate.
as §2, §3

WT HIV-1 = test: single-round infectivity assay, WT HIV-1 IN vector; conditions: Human immunodeficiency virus 1, read-out: EC50 values WT, vector carrying WT HIV-1 IN, single round infection, n = 4; new compounds
Procedure: as §1, §2, §3

HIV-1 IN mutant S119R = test: single-round infectivity assay, S119R IN mutant
Procedure: (§5) The EC50 values were determined using a vector that carries the IN mutant in a single round infection assay. […] Error bars represent the standard deviations of independent experiments, n = 4, performed in triplicate.
as §2, §3

HIV-1 IN mutant P142A = test: single-round infectivity assay, P142A IN mutant
Procedure: (§6) Figure 4 Mutations in the β5-α3 loop affect the antiviral potencies of the new compounds. The EC50 values were determined using a vector that carries the IN mutant in a single round infection assay. […] Error bars represent the standard deviations of independent experiments, n = 4, performed in triplicate.
as §2, §3

HIV-1 IN mutant P142H = test: single-round infectivity assay, P142H IN mutant
Procedure: as §5
Single round infectivity measurements were determined as done previously.[38]
as §3

HIV-1 IN mutant P142S = test: single-round infectivity assay, P142S IN mutant
Procedure: as §6, §2, §3

HIV-1 IN mutant N117H = test: single-round infectivity assay, N117H IN mutant
Procedure: as §5, §2, §3

HIV-1 IN mutant S230R = test: single-round infectivity assay, S230R IN mutant
Procedure: as §4, §2, §3

HIV-1 IN mutant N117A = test: single-round infectivity assay, N117A IN mutant
Procedure: as §5, §2, §3

HIV-1 IN mutant Y143C = test: single-round infectivity assay, Y143C IN mutant; conditions: EC50 compound / EC50 DTG
Procedure: as §6, §2, §3

[1] = system: HIV-1 IN double mutant G140S/Q148H; test: single-round infectivity assay, G140S/Q148H IN double mutant
Procedure: as §1, §2, §3

HIV-1 IN mutant N155H = test: single-round infectivity assay, N155H IN mutant
Procedure: as §1, §2, §3

HIV-1 IN mutant R231G = test: single-round infectivity assay, R231G IN mutant
Procedure: as §4, §2, §3

HIV-1 IN mutant Y143H = test: single-round infectivity assay, Y143H IN mutant; conditions: EC50 compound / EC50 DTG
Procedure: as §6, §2, §3

HIV-1 IN mutant G118R = test: single-round infectivity assay, G118R IN mutant
Procedure: as §5, §2, §3

[2] = fold change in EC50, IN mutant versus WT HIV-1

In the case of CS(=O)(=O)CCc1cnc2c(c1)c(N)c(C(=O)NCc1ccc(F)cc1F)c(=O)n2O [6u, 4-Amino-N-(2,4-difluorobenzyl)-1-hydroxy-6-(2-(methylsulfonyl)ethyl)-2-oxo-1,2-dihydro-1,8-naphthyridine-3-carboxamide], the “ratio of the EC50s (our compound relative to DTG) against Y143R” value (HIV-1 IN mutant Y143R; EC50 compound / EC50 DTG) is reported as 6.4, the EC50 (HIV-1 IN mutant Y143R; Human immunodeficiency virus 1, read-out: EC50 values Y143R) is reported as 27.5 ± 0.4 nM and the “FC Y143R” value (HIV-1 IN mutant Y143R; [2]) is reported as 1.0. The “ratio of the EC50s (our compound relative to DTG) against R231K” value (HIV-1 IN mutant R231K; EC50 compound / EC50 DTG) was 18.7, the EC50 (HIV-1 IN mutant R231K; Human immunodeficiency virus 1, read-out: EC50 values R231K, single round infection, n = 4) was 78.4 ± 9.9 nM and the “FC R231K” value (HIV-1 IN mutant R231K; [2]) was 2.9. The EC50 (WT HIV-1) was 27 ± 3.2 nM, the “ratio of the EC50s (our compound relative to DTG) against S119R” value (HIV-1 IN mutant S119R; EC50 compound / EC50 DTG) was 24.5 and the EC50 (HIV-1 IN mutant S119R; Human immunodeficiency virus 1, read-out: EC50 values S119R) was 56.4 ± 11 nM. The “FC S119R” value (HIV-1 IN mutant S119R; [2]) was 2.1, the “ratio of the EC50s (our compound relative to DTG) against P142A” value (HIV-1 IN mutant P142A; EC50 compound / EC50 DTG) was 20.3 and the EC50 (HIV-1 IN mutant P142A; Human immunodeficiency virus 1, read-out: EC50 values P142A) was 50.8 ± 6.4 nM. The “ratio of the EC50s (our compound relative to DTG) against P142H” value (HIV-1 IN mutant P142H; EC50 compound / EC50 DTG) was 16.1, the EC50 (HIV-1 IN mutant P142H; Human immunodeficiency virus 1, read-out: EC50 values P142H) was 45.1 ± 5.2 nM and the “ratio of the EC50s (our compound relative to DTG) against P142S” value (HIV-1 IN mutant P142S; EC50 compound / EC50 DTG) was 23.4. For the same molecule, the EC50 (HIV-1 IN mutant P142S; Human immunodeficiency virus 1, read-out: EC50 values P142S) was 51.5 ± 2.4 nM, the “ratio of the EC50s (our compound relative to DTG) against N117H” value (HIV-1 IN mutant N117H; EC50 compound / EC50 DTG) was 24.3 and the EC50 (HIV-1 IN mutant N117H; Human immunodeficiency virus 1, read-out: EC50 values N117H) was 58.3 ± 5.9 nM. The “FC N117H” value (HIV-1 IN mutant N117H; [2]) was 2.2, the “ratio of the EC50s (our compound relative to DTG) against S230R” value (HIV-1 IN mutant S230R; EC50 compound / EC50 DTG) was 19.1 and the EC50 (HIV-1 IN mutant S230R; Human immunodeficiency virus 1, read-out: EC50 values S230R) was 88 ± 14.5 nM. For the same molecule, the “FC S230R” value (HIV-1 IN mutant S230R; [2]) was 3.3, the “ratio of the EC50s (our compound relative to DTG) against N117A” value (HIV-1 IN mutant N117A; EC50 compound / EC50 DTG) was 30.0 and the EC50 (HIV-1 IN mutant N117A; Human immunodeficiency virus 1, read-out: EC50 values N117A) was 15 nM. For the same molecule, the “FC N117A” value (HIV-1 IN mutant N117A; [2]) was 0.6, the “ratio of the EC50s (our compound relative to DTG) against Y143C” value (HIV-1 IN mutant Y143C) was 31.4 and the “ratio of the EC50s (our compound relative to DTG) against G140S/Q148H” value ([1]; EC50 compound / EC50 DTG) was 20.3. For the same molecule, the EC50 ([1]; Human immunodeficiency virus 1, read-out: EC50 values G140S/Q148H) was 118 ± 31.3 nM, the “FC G140S/Q148H” value [1, 2] was 4.4 and the “ratio of the EC50s (our compound relative to DTG) against N155H” value (HIV-1 IN mutant N155H; EC50 compound / EC50 DTG) was 9.1. For the same molecule, the EC50 (HIV-1 IN mutant N155H; Human immunodeficiency virus 1, read-out: EC50 values N155H) was 32.8 ± 6 nM, the “FC N155H” value (HIV-1 IN mutant N155H; [2]) was 1.2 and the “ratio of the EC50s (our compound relative to DTG) against R231G” value (HIV-1 IN mutant R231G; EC50 compound / EC50 DTG) was 22.5. For the same molecule, the EC50 (HIV-1 IN mutant R231G; Human immunodeficiency virus 1, read-out: EC50 values R231G) was 31.5 ± 4 nM, the “FC R231G” value (HIV-1 IN mutant R231G; [2]) was 1.2 and the “ratio of the EC50s (our compound relative to DTG) against Y143H” value (HIV-1 IN mutant Y143H) was 17.0. The “ratio of the EC50s (our compound relative to DTG) against G118R” value (HIV-1 IN mutant G118R; EC50 compound / EC50 DTG) was 16.5, the EC50 (HIV-1 IN mutant G118R; Human immunodeficiency virus 1, read-out: EC50 values G118R) was 214 ± 26.3 nM and the “FC G118R” value (HIV-1 IN mutant G118R; [2]) was 7.9.
